Experiment in all cases: microbe, parasite or virus in culture
Common to all, as to type: cell-based, Staphylococcus aureus

Assay [1] relates to Mupirocin-susceptible MRSA ATCC-700699 (VISA). As to the method: (§1) The MICs of test compounds were determined using the microdilution method from the Clinical and Laboratory Standards Institute (CLSI) guidelines (Clinical and Laboratory Standards Institute. Methods for dilution antimicrobial susceptibility tests for bacteria that grow aerobically; approved standard—ninth edition. Document M07-A9. Vol. 32 No. 2. Wayne, Pa.: CLSI; 2012). Briefly, bacteria were grown fresh from frozen stock in Mueller Hinton 2 (MH2) agar at 37° C. After an overnight incubation, 5 bacteria colonies were selected to grow in cation-adjusted MH2 broth in a shaking incubator (140 RPM) at 37° C. Cells were grown to an optical density (OD600) of 0.15-0.16 determined using a spectrophotometer (Molecular Devices Spectra Max Plus), which corresponds to ˜1×10^8 CFU/mL. Test compounds were constituted into 4 mM DMSO stock solutions and then subjected to 2-fold serial dilution in a 96-well plate with concentrations ranging from 100 to 0.195 μM in duplicates. […] of microbial culture containing ˜1×10^6 CFU/mL of microbes in the respective broths was introduced into each well containing 50 μL of compound solution. After an overnight incubation at 35° C., (220 RPM), OD600 measurements were conducted using the microplate spectrophotometer. The MIC was defined as the lowest antibiotic or compound concentration (μM) required to inhibit bacteria growth.
(§2) The 11th well was used as the growth control well (medium with bacterial inoculums, no antibacterial) while the 12th well was the sterility control well (medium only).

Assay [2] deals with Mupirocin-resistant MRSA ATCC-BAA-1708. As to the method:
as §1, §2

Assay [3] relates to Mupirocin-susceptible MRSA ATCC-BAA-1754 (ST45). The method, then:
as §1, §2

Assay [4] concerns Mupirocin-susceptible MRSA ATCC-BAA-1707 (USA400). As to the method:
as §1, §2

The subject of assay [5] is Mupirocin-susceptible MRSA ATCC-BAA-2762 (EMRSA15, ST22). The method, then:
as §1, §2

Assay [6] concerns Mupirocin-susceptible MRSA ATCC-33592 (ST239). As to the method: as §1, §2
For assay [7], the system named is Mupirocin-resistant MRSA ATCC-BAA-1556. As to the method: as §1, §2
The subject of assay [8] is Mupirocin-susceptible MRSA ATCC-BAA-1756 (USA300). As to the method: as §1, §2
Assay [9] concerns Mupirocin-susceptible MRSA ATCC-BAA-1681 (USA100). As to the method: as §1, §2
Assay [10] has as its system Mupirocin-resistant MRSA ATCC-BAA-1750 (USA200). The method, then:
as §1, §2

Setting [11] is: Mupirocin-resistant MRSA ATCC-BAA-1556, cation-adjusted MH2 broth, overnight 35° C., OD600, read-out: MIC.

Molecules are shown by their SMILES. ≈ marks a conversion by molar mass, not a printed value. Read-outs that look alike come from different tables or passages of the source. Square brackets hold non-standard residues; d marks the D form. Peptide text beside a SMILES is read from it. Bip(4'-Cl) = N[C@@H](Cc1ccc(-c2ccc(Cl)cc2)cc1)C(=O)O; dBip(4'-Cl) = N[C@H](Cc1ccc(-c2ccc(Cl)cc2)cc1)C(=O)O; Bip = N[C@@H](Cc1ccc(-c2ccccc2)cc1)C(=O)O Some results are limits rather than exact numbers.

As for `N=C(N)NCCCCNC(=O)[C@@H](Cc1ccc(-c2ccccc2)cc1)NC(=O)[C@@H](CCCNC(=N)N)NC(=O)[C@H](N)Cc1ccc(-c2ccccc2)cc1` [Compound 2], the MIC is 6.25 µM (≈ 4.58 µg/mL) in assay [1] (Mupirocin-susceptible MRSA ATCC-700699 (VISA), read-out: MIC); 6.25 µM (≈ 4.58 µg/mL) in assay [2] (ATCC-BAA-1708, read-out: MIC); 6.25 µM (≈ 4.58 µg/mL) in [3] (ATCC-BAA-1754, read-out: MIC); 6.25 µM (≈ 4.58 µg/mL) in assay [4] (ATCC-BAA-1707, read-out: MIC); 6.25 µM (≈ 4.58 µg/mL) in assay [5] (ATCC-BAA-2762, read-out: MIC); 6.25 µM (≈ 4.58 µg/mL) in assay [6] (ATCC-33592, read-out: MIC). The MIC was 12.5 µM (≈ 9.16 µg/mL) in assay [7] (setting [11]); 6.25 µM (≈ 4.58 µg/mL) in assay [8] (ATCC-BAA-1756, read-out: MIC); 6.25 µM (≈ 4.58 µg/mL) in assay [9] (ATCC-BAA-1681, read-out: MIC); 6.25 µM (≈ 4.58 µg/mL) in assay [10] (ATCC-BAA-1750, read-out: MIC).
Consider `CC(C)(C)c1cc(-c2ccc(C[C@H](NC(=O)[C@H](CCCNC(=N)N)NC(=O)[C@@H](N)Cc3ccc(-c4ccccc4)cc3)C(=O)N[C@@H](CCCNC(=N)N)C(N)=O)cc2)cc(C(C)(C)C)c1` [Compound 30], for which the MIC in assay [7] (ATCC-BAA-1556, read-out: MIC) came to 50 µM (≈ 44.4 µg/mL).
Turning to `N=C(N)NCCC[C@H](NC(=O)[C@H](Cc1ccc(-c2ccccc2)cc1)NC(=O)[C@H](CCCNC(=N)N)NC(=O)[C@@H](N)Cc1ccc(-c2ccccc2)cc1)C(N)=O` [Compound 31] (H-[Bip]R[Bip]R-NH2), the MIC in assay [7] (ATCC-BAA-1556, read-out: MIC) amounted to 100 µM (≈ 77.6 µg/mL).
With `N=C(N)NCCC[C@H](NC(=O)[C@H](Cc1ccc(-c2ccccc2)cc1)NC(=O)[C@H](CCCNC(=N)N)NC(=O)[C@@H](N)Cc1ccc(-c2ccccc2)cc1)C(N)=O` [Compound 32] (H-[Bip]R[Bip]R-NH2), in [7] (ATCC-BAA-1556, read-out: MIC), the MIC is 50 µM (≈ 38.8 µg/mL).
On to `N=C(N)NCCC[C@H](NC(=O)[C@H](Cc1ccc(-c2ccc(Cl)cc2)cc1)NC(=O)[C@H](CCCNC(=N)N)NC(=O)[C@@H](N)Cc1ccc(-c2ccc(Cl)cc2)cc1)C(N)=O` [Compound 33] (H-[Bip(4'-Cl)]R[Bip(4'-Cl)]R-NH2), for which the MIC in assay [1] (ATCC-700699, read-out: MIC) is listed as 3.125 µM (≈ 2.64 µg/mL); in [2] (ATCC-BAA-1708, read-out: MIC) it was 1.56 µM (≈ 1.32 µg/mL); in assay [3] (ATCC-BAA-1754, read-out: MIC), 3.125 µM (≈ 2.64 µg/mL); in assay [4] (ATCC-BAA-1707, read-out: MIC), 3.125 µM (≈ 2.64 µg/mL); in assay [5] (ATCC-BAA-2762, read-out: MIC), 3.125 µM (≈ 2.64 µg/mL); in assay [6] (ATCC-33592, read-out: MIC), 3.125 µM (≈ 2.64 µg/mL). Also, the MIC in [7] (setting [11]) came to 3.125 µM (≈ 2.64 µg/mL); in assay [8] (ATCC-BAA-1756, read-out: MIC), 3.125 µM (≈ 2.64 µg/mL); in assay [9] (ATCC-BAA-1681, read-out: MIC), 3.125 µM (≈ 2.64 µg/mL); in [10] (ATCC-BAA-1750, read-out: MIC), 1.56 µM (≈ 1.32 µg/mL). Moreover, in assay [7] (against Mupirocin-resistant MRSA strains), the “improvement of bioactivity (lower MIC values) as compared to Compound 2” value was “about 4 fold”.
As for `N=C(N)NCCC[C@@H](NC(=O)[C@H](N)Cc1ccc(-c2ccc(Cl)cc2)cc1)C(=O)N[C@H](Cc1ccc(-c2ccc(Cl)cc2)cc1)C(N)=O` [Compound 35], the MIC in assay [7] (ATCC-BAA-1556, read-out: MIC) was 6.25 µM (≈ 4.3 µg/mL).
Still for that read-out and setting: the value for `N=C(N)NCCC[C@@H](NC(=O)[C@@H](Cc1ccc(-c2ccc(Cl)cc2)cc1)NC(=O)[C@H](N)CCCNC(N)=O)C(N)=O` [Compound 36] was above 100 µM.
Same read-out and setting: the value for `N=C(N)NCCC[C@@H](NC(=O)[C@H](N)Cc1ccc(-c2ccc(Cl)cc2)cc1)C(N)=O` [Compound 37] was above 100 µM; that for `NC(=O)NCCC[C@@H](N)C(=O)N[C@H](Cc1ccc(-c2ccc(Cl)cc2)cc1)C(N)=O` [Compound 38] was above 100 µM; that for `N=C(N)NCCC[C@@H](N)C(=O)N[C@H](Cc1ccc(-c2ccc(Cl)cc2)cc1)C(=O)N[C@H](CCCNC(=N)N)C(=O)N[C@H](Cc1ccc(-c2ccc(Cl)cc2)cc1)C(=O)N[C@H](CCCNC(=N)N)C(N)=O` [Compound 39] (H-[dR][dBip(4'-Cl)][dR][dBip(4'-Cl)][dR]-NH2) was 3.125 µM (≈ 3.13 µg/mL).
The same measure, in the same setting: to `N=C(N)NCCC[C@@H](NC(=O)[C@H](N)Cc1ccc(-c2ccc(Cl)cc2)cc1)C(=O)N[C@H](Cc1ccc(-c2ccc(Cl)cc2)cc1)C(=O)N[C@H](CCCNC(=N)N)C(=O)N[C@H](Cc1ccc(-c2ccc(Cl)cc2)cc1)C(N)=O` [Compound 40] (H-[dBip(4'-Cl)][dR][dBip(4'-Cl)][dR][dBip(4'-Cl)]-NH2) belongs above 100 µM; to `N=C(N)NCCCCNC(=O)[C@H](Cc1ccc(-c2ccc(Cl)cc2)cc1)NC(=O)[C@H](CCCNC(=N)N)NC(=O)[C@@H](N)Cc1ccc(-c2ccc(Cl)cc2)cc1` [Compound 41], 6.25 µM (≈ 5.01 µg/mL).
Turning to `N=C(N)NCCC[C@H](NC(=O)[C@H](Cc1ccc(-c2ccc(Cl)cc2)cc1)NC(=O)[C@H](CCCNC(=N)N)NC(=O)[C@H](N)Cc1ccc(-c2ccc(Cl)cc2)cc1)C(N)=O` [Compound 42] (H-[dBip(4'-Cl)]R[Bip(4'-Cl)]R-NH2), in [7] (ATCC-BAA-1556, read-out: MIC), the MIC amounted to 6.25 µM (≈ 5.28 µg/mL).
For the compound `N=C(N)NCCC[C@H](NC(=O)[C@H](Cc1ccc(-c2ccc(Cl)cc2)cc1)NC(=O)[C@@H](CCCNC(=N)N)NC(=O)[C@@H](N)Cc1ccc(-c2ccc(Cl)cc2)cc1)C(N)=O` [Compound 43] (H-[Bip(4'-Cl)][dR][Bip(4'-Cl)]R-NH2), the MIC in assay [7] (ATCC-BAA-1556, read-out: MIC) worked out at 6.25 µM (≈ 5.28 µg/mL).
Consider `N=C(N)NCCC[C@H](NC(=O)[C@@H](Cc1ccc(-c2ccc(Cl)cc2)cc1)NC(=O)[C@H](CCCNC(=N)N)NC(=O)[C@@H](N)Cc1ccc(-c2ccc(Cl)cc2)cc1)C(N)=O` [Compound 44] (H-[Bip(4'-Cl)]R[dBip(4'-Cl)]R-NH2), for which the MIC in assay [7] (ATCC-BAA-1556, read-out: MIC) came to 6.25 µM (≈ 5.28 µg/mL).
Turning to `N=C(N)NCCC[C@H](NC(=O)[C@@H](N)Cc1ccc(-c2ccc(Cl)cc2)cc1)C(=O)N[C@@H](Cc1ccc(-c2ccc(Cl)cc2)cc1)C(=O)N[C@H](CCCNC(=N)N)C(N)=O` [Compound 45] (H-[Bip(4'-Cl)]R[Bip(4'-Cl)][dR]-NH2), the MIC in assay [7] (ATCC-BAA-1556, read-out: MIC) came out at 6.25 µM (≈ 5.28 µg/mL).
With `C=C[C@]1(C)C[C@@H](OC(=O)CS[C@@H]2C[C@H]3CC[C@@H](C2)N3C)[C@]2(C)[C@H](C)CC[C@]3(CCC(=O)[C@H]32)[C@@H](C)[C@@H]1O` [Retapamulin], the MIC in [1] (Staphylococcus aureus), in assay [2] (Staphylococcus aureus), in [3] (Staphylococcus aureus), in assay [4] (Staphylococcus aureus), in assay [5] (Staphylococcus aureus) and in assay [6] (Staphylococcus aureus) was at most 0.2 µM throughout. The MIC in [7] (Staphylococcus aureus), in [8] (Staphylococcus aureus), in assay [9] (Staphylococcus aureus) and in assay [10] (Staphylococcus aureus) was at most 0.2 µM each time.
